In publication PMC10221159, “Investigation of N-Acetyltransferase 2-Mediated Drug Interactions of Amifampridine: In Vitro and In Vivo Evidence of Drug Interactions with Acetaminophen” (Pharmaceutics, 2023):
Like-named read-outs stand apart in the source and are kept apart here.

Key:
[1] = In vitro metabolic profile of amifampridine (3-N-acetylamifampridine formation) in rat liver S9 fraction; format: in vitro ADME
Experimental: An in vitro metabolic study was performed to investigate the metabolic profile of amifampridine in the rat liver S9 fraction. The reaction mixture, which consisted of rat liver S9 fraction (2 mg/mL protein) and 2 mM acetyl-CoA in potassium phosphate buffer, was prepared and incubated for 5 min in a thermal mixer (200 oscillations/min) at 37 °C. Then, amifampridine was added to the reaction mixture to make the final concentrations of amifampridine at 2, 10, 20, 50, 100, 500, and 1000 μM. After further incubation for 15 min at 37 °C, 50 μL of the sample was transferred into the tube containing 200 μL of ice-cold potassium phosphate buffer and mixed by vortexing. An amount of 50 μL of the mixture was then transferred into the tube containing 100 μL of internal standard (IS; 5 ng/mL ondansetron in acetonitrile), followed by vortexing and centrifugation at 14,000 rpm for 15 min at 4 °C. The supernatant was transferred into vials for HPLC-tandem mass spectrometry (MS/MS) analysis and the concentration of 3-N-acetylamifampridine was determined.
The Vm and Km values, Michaelis–Menten parameters, were determined by linear regression using Lineweaver–Burk equation, as follows: 1/v=Km/Vmax×1/S+1/Vmax where v is the rate of amifampridine metabolism to 3-N-acetylamifampridine in the S9 fraction, [S] is the concentration of amifampridine, Vmax is the maximum metabolic rate of amifampridine, and Km is the concentration of amifampridine at half Vmax. The intrinsic clearance (CLint) was calculated using Vmax/Km, with the assumption that Km is much greater than [S], as is usual in clinical practice.

[2] = In vivo pharmacokinetic interaction study in rats (plasma); parameters: species or system rat; details: oral amifampridine 2 mg/kg; for AUC(0-inf) / AUC(0-t) / CL/F / Cmax / MRT / Tmax / Vd/F / half-life / CL renal: male, Sprague-Dawley, rat, po, 2 mg/kg; for AUC(0-inf) / AUC(0-t) / CL/F / Cmax / MRT / Tmax / Vd/F / half-life: plasma; for CL renal: urine and plasma, renal clearance
Experimental: Male Sprague Dawley (SD) rats (7–8 weeks old, 260–330 g) were purchased from Orient Bio, Inc. (Seongnam, Korea). The rats were housed under a light/dark cycle for 12 h and were left for at least a week before the experiment to adapt to the laboratory environment. Water and food were provided ad libitum. The rats were fasted overnight with free access to water prior to pharmacokinetic studies. The protocols for animal experiments were approved in accordance with the Guidelines for Animal Care and Use of Gachon University (approval no.: GIACUC-R2021006; 13 May 2021).
The rats were anesthetized with a mixture of Rompun and Zoletil by intramuscular injection and received an intraperitoneal injection of vehicle (40:60 PEG400:normal saline; n = 8) or 100 mg/kg acetaminophen (n = 8). After 10 min, 2 mg/kg amifampridine (dissolved in saline) was administered orally. Blood samples were collected at 0, 5, 15, 30, 60, 90, 120, 240, and 360 min and centrifuged at 14,000 rpm for 15 min at 4 °C. For analysis of amifampridine and 3-N-acetylamifampridine, 50 μL of plasma samples was mixed with 100 μL IS solution (5 ng/mL ondansetron in acetonitrile) and the mixture was vortexed followed by centrifugation at 14,000 rpm for 15 min at 4 °C. For the analysis of acetaminophen, 200 μL of IS (tolbutamide 200 ng/mL in methanol) was added to the plasma samples which were diluted 10-fold using the blank plasma and then vortexed for one minute. Further, the samples were centrifuged at 14,000 rpm for 15 min at 4 °C. The supernatants were transferred to LC vials for quantification.
Non-compartment analysis (NCA) was performed to calculate the pharmacokinetic parameters for the in vivo study using WinNonlin (Version 8.3. (Pharsight Corporation, Mountain View, CA, USA)). The area under the plasma concentration–time curve from time 0 to infinity (AUCinf) was calculated by the linear trapezoidal method and standard extrapolation using λ, where λ represents the slope of the terminal phase in a semi-log graph for plasma concentration–time profiles. Renal clearance (CLr) was determined by dividing the accumulated amount of drug excreted in the urine by AUCinf.

[3] = Urinary excretion of amifampridine and 3-N-acetylamifampridine in rats; format: in vivo, rat; details: Sprague Dawley, rat, urine, oral, 2 mg/kg, 24 h, oral amifampridine 2 mg/kg, read-out: total urinary recovery
Experimental: Urine samples were collected at intervals of 0–4, 4–8, and 8–24 h after the administration of amifampridine to control and acetaminophen-treated rats (n = 6), as described above, and were diluted 500-fold with potassium phosphate buffer. An amount of 200 μL of IS was then added to the samples and vortexed for a minute. After centrifugation at 14,000 rpm for 15 min at 4 °C, the supernatant was transferred into vials for quantification of amifampridine and 3-N-acetylamifampridine.

[4] = Tissue distribution of amifampridine and 3-N-acetylamifampridine in rats; format: in vivo, rat; details: for Kp at 1 h: rat, 60 min after oral amifampridine 2 mg/kg
Experimental: To investigate the effects of acetaminophen on the tissue distribution of amifampridine and 3-N-acetylamifampridine, rats were sacrificed at 60 min after administration of amifampridine in control and acetaminophen-treated rats (n = 6) as mentioned above, and the tissues, including liver, kidney, heart, lungs, spleen, brain, and muscle tissues, were obtained. Tissue samples were homogenized using a Wheaton^TM Dounce tissue grinder (Wheaton Millipore, Billerica, MA, USA) after adding a three-fold volume of PBS. An amount of 100 μL of tissue homogenates was transferred to the tube and 200 μL of IS solution was then added and vortexed followed by centrifugation at 14,000 rpm for 15 min at 4 °C. The supernatants were transferred to LC vials for quantification. For muscle samples, the supernatant was concentrated using a desiccator and reconstituted with the mobile phase solvent.

[5] = parameters: method as in PMID 25692017; details: NAT2 slow vs fast acetylators; cited from earlier work
[6] = acetaminophen-treated (100 mg/kg) vs control rats
[7] = acetaminophen-treated group (100 mg/kg ip)
[8] = 60 min, acetaminophen-treated vs control rats

Nc1ccncc1N [amifampridine]
Vmax ([1]; 3-N-acetylamifampridine formation, rat liver S9, Lineweaver–Burk plot): 5130 ± 1100 pmol/min/mg protein | intrinsic clearance in liver S9 fraction ([1]; liver S9 fraction, Vmax/Km, rat liver S9, read-out: CLint): 78 ± 11 µL/min/mg | Km at 15 min ([1]; rat liver S9 fraction, 3-N-acetylamifampridine formation, rat liver S9 (2 mg/mL protein), Lineweaver–Burk plot): 66.6 ± 24.2 µM | increase in AUCinf [2, 6]: 185.64% | increase in Cmax [2, 6]: 208.34% | AUC(0-inf) [2, 7]: 434 ng·h/mL | AUC(0-t) [2, 7]: 414 ng·h/mL | CL/F [2, 7]: 81.7 ± 21.2 mL/min/kg | Cmax [2, 7]: 200 ± 100 ng/mL | MRT [2, 7]: 2.08 h | Tmax [2, 7]: 1 h | Vd/F [2, 7]: 9.83 ± 4.69 L/kg | half-life [2, 7]: 1.36 ± 0.416 h | AUC(0-inf) ([2]; control group): 152 ng·h/mL | AUC(0-t) ([2]; control group): 141 ng·h/mL | CL/F ([2]; control group): 225 ± 38.3 mL/min/kg | Cmax ([2]; control group): 70 ± 20 ng/mL | MRT ([2]; control group): 2.29 h | Tmax ([2]; control group): 0.781 h | Vd/F ([2]; control group): 26.9 L/kg | half-life ([2]; control group): 1.4 ± 0.352 h | CL renal [2, 7]: 3.87 ± 0.91 mL/min | CL renal ([2]; control group): 4.89 ± 1.71 mL/min | dose excreted ([3]; acetaminophen-treated rats): 18.9% | dose excreted ([3]; control rats): 6.7% | increase of concentration in liver [4, 8]: 270.26% | increase of concentration in muscle [4, 8]: 413.11% | increase of concentration in spleen [4, 8]: 265.17% | Kp at 1 h ([4]; Sprague Dawley, brain, acetaminophen 100 mg/kg, read-out: Tissue partition coefficient (Kp), Brain): 0.1 | Kp at 1 h ([4]; Sprague Dawley, brain, control, read-out: Tissue partition coefficient (Kp), Brain): 0.1 ± 0.3 | Kp at 1 h ([4]; Sprague Dawley, heart, acetaminophen 100 mg/kg, read-out: Tissue partition coefficient (Kp), Heart): 0.7 ± 0.5 | Kp at 1 h ([4]; Sprague Dawley, heart, control, read-out: Tissue partition coefficient (Kp), Heart): 0.6 ± 0.5 | Kp at 1 h ([4]; Sprague Dawley, lungs, acetaminophen 100 mg/kg, read-out: Tissue partition coefficient (Kp), Lungs): 2.2 ± 2.8 | Kp at 1 h ([4]; Sprague Dawley, lungs, control, read-out: Tissue partition coefficient (Kp), Lungs): 1.7 ± 1.1 | Kp at 1 h ([4]; Sprague Dawley, spleen, acetaminophen 100 mg/kg, read-out: Tissue partition coefficient (Kp), Spleen): 1.6 ± 1 | Kp at 1 h ([4]; Sprague Dawley, spleen, control, read-out: Tissue partition coefficient (Kp), Spleen): 1 ± 0.5 | decrease of Kp in the kidneys ([4]; acetaminophen-treated vs control rats): 51% | Kp at 1 h ([4]; male, Sprague-Dawley, kidney, acetaminophen 100 mg/kg, read-out: Tissue partition coefficient (Kp), Kidney): 3.6 ± 0.4 | Kp at 1 h ([4]; male, Sprague-Dawley, kidney, control, read-out: Tissue partition coefficient (Kp), Kidney): 7.4 ± 2.7 | Kp at 1 h ([4]; male, Sprague-Dawley, liver, acetaminophen 100 mg/kg, read-out: Tissue partition coefficient (Kp), Liver): 3 ± 1.5 | Kp at 1 h ([4]; male, Sprague-Dawley, liver, control, read-out: Tissue partition coefficient (Kp), Liver): 3.8 ± 2.6 | Kp at 1 h ([4]; male, Sprague-Dawley, muscle, acetaminophen 100 mg/kg, read-out: Tissue partition coefficient (Kp), Muscle): 0.4 ± 0.2 | Kp at 1 h ([4]; male, Sprague-Dawley, muscle, control, read-out: Tissue partition coefficient (Kp), Muscle): 0.5 ± 0.4 | AUC higher in slow acetylators than in fast acetylators [5]: 5–10 fold | Cmax higher in slow acetylators than in fast acetylators [5]: approximately 3.5 fold | higher frequency of drug-related treatment-emergent adverse events in slow than fast acetylators [5]: more than 10 fold
